In DBAASP:
≈ marks a conversion by molar mass, not a printed value. Where “and” joins values, the source holds several entries; their conditions need not be identical. Equal values may be shown once. Each block holds one compound with its values, some of them ahead of it.

Columns and labels:
Test in all cases: ≥ marks a high value that may be exact or a test limit, other limits are often not marked, values filed in µg/mL are converted to µM
[1] = system: Acinetobacter baumannii CICC 22934
Acinetobacter baumannii = system: Acinetobacter baumannii
Bacillus cereus AS1.126 = system: Bacillus cereus AS1.126
Bacillus cereus = system: Bacillus cereus
[2] = system: Enterobacter cloacae CGMCC 1.58
Enterobacter cloacae = system: Enterobacter cloacae
[3] = system: Enterococcus faecalis CGMCC 1.595
[4] = system: Enterococcus faecium CGMCC 1.2334
Enterococcus faecium = system: Enterococcus faecium
Escherichia coli AS1.349 = system: Escherichia coli AS1.349
[5] = system: Escherichia coli ATCC 11775
Escherichia coli = system: Escherichia coli
[6] = system: Klebsiella aerogenes CGMCC 1.876
Klebsiella aerogenes = system: Klebsiella aerogenes
[7] = system: Klebsiella pneumoniae subsp. pneumoniae CGMCC 1.176
Klebsiella pneumoniae = system: Klebsiella pneumoniae
[8] = system: Lactococcus lactis AS1.1690
Lactococcus lactis = system: Lactococcus lactis
[9] = system: Proteus mirabilis CICC 22931
[10] = system: Pseudomonas aeruginosa CGMCC 1.860
Pseudomonas aeruginosa = system: Pseudomonas aeruginosa
Pseudomonas fluorescens = system: Pseudomonas fluorescens
[11] = system: Staphylococcus aureus AS1.72
[12] = system: Staphylococcus aureus ATCC 12600
Staphylococcus aureus = system: Staphylococcus aureus
[13] = system: Staphylococcus epidermidis CICC 23664
[14] = system: Staphylococcus epidermidis
[15] = system: Acinetobacter baumannii 5821
[16] = system: Enterobacter cloacae 06-267
[17] = system: Enterobacter cloacae 14-262
Escherichia coli 09-240 = system: Escherichia coli 09-240
Escherichia coli 09-280 = system: Escherichia coli 09-280
Escherichia coli 170 = system: Escherichia coli 170
Escherichia coli 5509 = system: Escherichia coli 5509
[18] = system: Escherichia coli ATCC 25922
[19] = system: Klebsiella pneumoniae 01-239
[20] = system: Klebsiella pneumoniae 01-252
[21] = system: Pseudomonas aeruginosa 3599
[22] = system: Pseudomonas aeruginosa 5106
[23] = system: Pseudomonas aeruginosa ATCC 27853
[24] = system: Pseudomonas aeruginosa ATCC 9027
[25] = system: Staphylococcus aureus 01-001
[26] = system: Staphylococcus aureus 06-051
[27] = system: Staphylococcus aureus ATCC 29213
Bacillus subtilis 168 = system: Bacillus subtilis 168
[28] = system: Candida albicans F7-39/IDE99
Escherichia coli B = system: Escherichia coli B
[29] = system: Micrococcus luteus CCM 144
[30] = system: Escherichia coli HP101BA 7601c
[31] = system: Klebsiella pneumoniae PTCC 1388
[32] = system: Salmonella typhimurium PTCC 1428
[33] = system: Staphylococcus aureus PTCC 1431
[34] = system: Streptococcus agalactiae PTCC 1365
[35] = system: Streptococcus dysgalactiae PTCC 1074

MIC [1]: ≥ 100 µM
MIC (Acinetobacter baumannii): ≥ 50 µM
MIC (Bacillus cereus AS1.126): 11.6 µM (≈ 25 µg/mL)
MIC (Bacillus cereus): 11.6 µM (≈ 25 µg/mL)
MIC [2]: ≥ 500 µM
MIC (Enterobacter cloacae): ≥ 50 µM
MIC [3]: ≥ 33.3 µM
MIC [4]: ≥ 42.4 µM
MIC (Enterococcus faecium): ≥ 50 µM
MIC (Escherichia coli AS1.349): ≥ 500 µM
MIC [5]: 3 µM (≈ 6.47 µg/mL)
MIC (Escherichia coli): > 100 µM and 50 µM
MIC [6]: ≥ 500 µM
MIC (Klebsiella aerogenes): ≥ 50 µM
MIC [7]: ≥ 500 µM
MIC (Klebsiella pneumoniae): > 50 µM
MIC [8]: 15.6 µM (≈ 33.6 µg/mL)
MIC (Lactococcus lactis): 11.6 µM (≈ 25 µg/mL)
MIC [9]: ≥ 100 µM
MIC [10]: ≥ 380 µM
MIC (Pseudomonas aeruginosa): > 50 µM
MIC (Pseudomonas fluorescens): ≥ 50 µM
MIC [11]: ≥ 58 µM
MIC [12]: 6 µM (≈ 12.9 µg/mL)
MIC (Staphylococcus aureus): 58 µM and 50 µM
MIC [13]: 7.2 µM (≈ 15.5 µg/mL)
MIC [14]: ≥ 50 µM
SMILES: CC(C)C[C@H](NC(=O)CNC(=O)[C@H](Cc1ccccc1)NC(=O)[C@H](CCCN=C(N)N)NC(=O)[C@H](CCCN=C(N)N)NC(=O)CNC(=O)[C@H](Cc1cnc[nH]1)NC(=O)[C@H](CCCN=C(N)N)NC(=O)CNC(=O)[C@@H](NC(=O)[C@H](C)NC(=O)[C@@H](N)CO)C(C)C)C(=O)N[C@@H](CCCN=C(N)N)C(=O)N[C@@H](CCCCN)C(=O)N[C@@H](Cc1cnc[nH]1)C(=O)N[C@@H](CCCN=C(N)N)C(=O)N[C@@H](CCCCN)C(=O)N[C@@H](Cc1cnc[nH]1)C(=O)O [SAVGRHGRRFGLRKHRKH]

MIC [15]: ≥ 38 µM
MIC [16]: ≥ 32 µM
MIC [17]: ≥ 50 µM
MIC (Escherichia coli 09-240): ≥ 50 µM
MIC (Escherichia coli 09-280): ≥ 32 µM
MIC (Escherichia coli 170): ≥ 32 µM
MIC (Escherichia coli 5509): ≥ 32 µM
MIC [18]: 25 µM (≈ 38.7 µg/mL)
MIC [19]: ≥ 50 µM
MIC [20]: ≥ 32 µM
MIC [21]: ≥ 32 µM
MIC [22]: ≥ 32 µM
MIC [23]: > 32 µM
MIC [24]: 40 µM (≈ 61.9 µg/mL)
MIC [25]: ≥ 32 µM
MIC [26]: ≥ 32 µM
MIC [27]: 32 µM (≈ 49.5 µg/mL)
SMILES: CC[C@H](C)[C@H](NC(=O)[C@H](C)NC(=O)[C@H](CC(N)=O)NC(=O)[C@H](CCCCN)NC(=O)[C@@H](NC(=O)CNC(=O)[C@H](CCC(=O)O)NC(=O)[C@H](Cc1c[nH]c2ccccc12)NC(=O)[C@H](CC(C)C)NC(=O)[C@H](CCCCN)NC(=O)CNC(=O)[C@H](Cc1c[nH]c2ccccc12)NC(=O)[C@@H](N)Cc1ccccc1)C(C)C)C(N)=O [FWGKLWEGVKNAI]

MIC (Bacillus subtilis 168): 3.3 µM (≈ 9.08 µg/mL)
MIC [28]: 24.2 µM (≈ 66.6 µg/mL)
MIC (Escherichia coli B): ≥ 63.3 µM
MIC [29]: 1.6 µM (≈ 4.4 µg/mL)
MIC (Pseudomonas aeruginosa): > 100 µM
MIC (Staphylococcus aureus): > 100 µM
SMILES: CC[C@H](C)[C@@H]1NC(=O)[C@H](CCCCN)NC(=O)[C@H](CCCCN)NC(=O)[C@@H]2CSSC[C@H](NC(=O)[C@H](C)NC(=O)[C@H](C(C)C)NC(=O)[C@@H](NC(=O)[C@@H](NC(=O)[C@@H](NC(=O)[C@H](CCCCN)NC(=O)[C@H](CCCCN)NC(=O)[C@@H](NC(=O)[C@H](CC(=O)O)NC(=O)[C@@H](N)CC(C)C)C(C)C)[C@@H](C)CC)[C@@H](C)CC)CSSC[C@@H](C(=O)N3CCC[C@H]3C(=O)N[C@@H](CCCCN)C(=O)O)NC1=O)C(=O)N[C@@H](CCCCN)C(=O)N[C@@H]([C@@H](C)CC)C(=O)N[C@@H](CCCCN)C(=O)N1CCC[C@H]1C(=O)N[C@@H](CC(N)=O)C(=O)N1CCC[C@H]1C(=O)N[C@@H](C)C(=O)N2 [LDVKKIICVACKIKPNPACKKICPK]

MIC [30]: 27.8 µM (≈ 34.5 µg/mL)
MIC [31]: 28.2 µM (≈ 35.1 µg/mL)
MIC [32]: 25.6 µM (≈ 31.8 µg/mL)
MIC [33]: ≥ 33.9 µM
MIC [34]: 24.5 µM (≈ 30.5 µg/mL)
MIC [35]: 17.5 µM (≈ 21.8 µg/mL)
SMILES: CC(C)C[C@H](NC(=O)[C@@H](NC(=O)CNC(=O)[C@H](C)NC(=O)[C@H](CC(C)C)NC(=O)[C@@H](NC(=O)[C@@H]1CCCN1C(=O)[C@H](CC(C)C)NC(=O)[C@@H](N)Cc1ccccc1)C(C)C)C(C)C)C(=O)N[C@@H](CO)C(=O)N[C@@H](CCCN=C(N)N)C(=O)N[C@@H](C)C(N)=O [FLPVLAGVLSRA]
